How the values were obtained:
Human M4 = target: T1, Human M4 (Homo sapiens, UniProt P08173); experiment: mAChR M4 cell-based functional assay (calcium flux, antagonist mode vs EC80 acetylcholine), human M4/Gqi5/CHO-K1 cells; settings: for remaining activity at 30 µM: CHO-K1, % ACh maximum at 30 μM, human M4, read-out: Human M4 Emin (%); for IC50: decrease of response elicited by EC80 acetylcholine, human M4/Gqi5 CHO-K1 cells
T1 construct: expressed in transfected cells; host or cells: CHO-K1 (ATCC), stably co-expressing chimeric G protein Gqi5
T1 sequence (P08173 1-479): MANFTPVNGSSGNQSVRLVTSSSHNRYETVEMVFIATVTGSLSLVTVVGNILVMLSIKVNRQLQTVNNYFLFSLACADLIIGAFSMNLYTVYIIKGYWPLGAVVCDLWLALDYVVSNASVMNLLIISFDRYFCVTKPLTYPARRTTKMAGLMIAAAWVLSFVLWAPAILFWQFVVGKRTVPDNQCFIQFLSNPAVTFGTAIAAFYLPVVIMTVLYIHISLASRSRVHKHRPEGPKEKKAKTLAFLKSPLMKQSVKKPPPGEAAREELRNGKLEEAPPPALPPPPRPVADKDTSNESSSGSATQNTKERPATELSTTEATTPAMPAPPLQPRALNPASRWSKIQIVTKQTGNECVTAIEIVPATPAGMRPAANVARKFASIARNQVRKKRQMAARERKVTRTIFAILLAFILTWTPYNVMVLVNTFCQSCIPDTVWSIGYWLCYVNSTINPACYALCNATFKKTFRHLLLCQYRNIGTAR
Experimental: (§1) Human or rat M4 cDNA, along with the chimeric G protein Gqi5, were transfected into Chinese hamster ovary (CHO-K1) cells purchased from the American Type Culture Collection using Lipofectamine2000. M4/Gqi5/CHO cells were grown in Ham's F-12 medium containing 10% heat-inactivated fetal bovine serum (FBS), 20 mM HEPES, 500 μg/mL G418 sulfate, and 200 μg/mL Hygromycin B.
(§2) For high throughput measurement of agonist-evoked increases in intracellular calcium, CHO-K1 cells stably expressing muscarinic receptors were plated in growth medium lacking G418 and hygromycin at 15,000 cells/20 μL/well in Greiner 384-well black-walled, tissue culture (TC)-treated, clear-bottom plates (VWR). Cells were incubated overnight at 37° C. and 5% CO2. The next day, cells were washed using an ELX 405 (BioTek) with assay buffer; the final volume was then aspirated to 20 μL. Next, 20 μL of a 2.3 μM stock of Fluo-4/acetoxymethyl ester (Invitrogen, Carlsbad, Calif.), prepared as a 2.3 mM stock in DMSO and mixed in a 1:1 ratio with 10% (w/v) Pluronic F-127 and diluted in assay buffer, was added to the wells and the cell plates were incubated for 50 min at 37° C. and 5% CO2. Dye was removed by washing with the ELX 405 and the final volume was aspirated to 20 μL. Compound master plates were formatted in a 10 point concentration-response curve (CRC) format (1:3 dilutions) in 100% DMSO with a starting concentration of 10 or 1 mM using a BRAVO liquid handler (Agilent). Test compound CRCs were then transferred to daughter plates (240 nL) using the Echo acoustic plate reformatter (Labcyte, Sunnyvale, Calif.) and then diluted into assay buffer (40 μL) to a 2× stock using a Thermo Fisher Combi (Thermo Fisher Scientific, Waltham, Mass.).
(§3) Calcium flux was measured using the Functional Drug Screening System (FDSS) 6000 or 7000 (Hamamatsu Corporation, Tokyo, Japan) as an increase in the fluorescent static ratio. Compounds were applied to cells (20 μL, 2×) using the automated system of the FDSS at 2 seconds into the protocol and the data were collected at 1 Hz. At 143 s, 10 μL of an EC20 concentration of the muscarinic receptor agonist acetylcholine was added (5×), followed by the addition of 12 μL of an EC80 concentration of acetylcholine at the 268 s time point (5×). Agonist activity was analyzed as a concentration-dependent increase in calcium mobilization upon compound addition. Positive allosteric modulator activity was analyzed as a concentration-dependent increase in the EC20 acetylcholine response. Antagonist activity was analyzed as a concentration-dependent decrease in the EC80 acetylcholine response; for the purposes of the tables herein, an IC50 (inhibitory concentration 50) was calculated as a concentration-dependent decrease of the response elicited by an EC80 concentration of acetylcholine. Concentration-response curves were generated using a four-parameter logistical equation in XLFit curve fitting software (IDBS, Bridgewater, N.J.) for Excel (Microsoft, Redmond, Wash.) or Prism (GraphPad Software, Inc., San Diego, Calif.) or the Dotmatics software platform (Dotmatics, Bishop's Stortford, UK).
(§4) Compounds were synthesized as described above. Activity (IC50 and Emin) was determined in the mAChR M4 cell-based functional assay as described above and the data are shown in Table 2.

Rat M4 = target: T2, Rat M4 (Rattus norvegicus, UniProt P08485); experiment: mAChR M4 cell-based functional assay (calcium flux, antagonist mode vs EC80 acetylcholine), rat M4/Gqi5/CHO-K1 cells; settings: for remaining activity at 30 µM: CHO-K1, % ACh maximum at 30 μM, rat M4, read-out: Rat M4 Emin (%); for IC50: decrease of response elicited by EC80 acetylcholine, rat M4/Gqi5 CHO-K1 cells
T2 construct: expressed in transfected cells; host or cells: CHO-K1 (ATCC), stably co-expressing chimeric G protein Gqi5
T2 sequence (P08485 1-478): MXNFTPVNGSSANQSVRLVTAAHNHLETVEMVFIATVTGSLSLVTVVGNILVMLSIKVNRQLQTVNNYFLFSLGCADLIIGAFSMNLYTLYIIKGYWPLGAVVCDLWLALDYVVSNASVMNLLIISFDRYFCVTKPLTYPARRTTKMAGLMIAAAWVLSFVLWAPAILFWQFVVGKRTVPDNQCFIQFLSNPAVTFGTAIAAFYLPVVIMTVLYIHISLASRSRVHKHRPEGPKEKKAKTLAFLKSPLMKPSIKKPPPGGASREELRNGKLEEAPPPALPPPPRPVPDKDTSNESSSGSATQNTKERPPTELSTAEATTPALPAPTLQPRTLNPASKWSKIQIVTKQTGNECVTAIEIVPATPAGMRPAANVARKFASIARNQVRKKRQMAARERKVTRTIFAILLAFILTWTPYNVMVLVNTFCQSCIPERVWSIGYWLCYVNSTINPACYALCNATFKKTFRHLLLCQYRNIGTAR
Experimental: as §1, §2, §3, §4

remaining activity at 30 µM (Human M4) [%] | IC50 (Human M4) [µM] | remaining activity at 30 µM (Rat M4) [%] | IC50 (Rat M4) [µM] | SMILES
4 | 0.0422 | 5 | 0.74 | COCCCN1C[C@H]2C[C@H](Nc3ccc(-c4cc(F)ccc4Cl)nn3)C[C@H]2C1 [compound 1, (3aR,5s,6aS)-N-(6-(2-chloro-5-fluorophenyl)pyridazin-3-yl)-2-(3-methoxypropyl)octahydrocyclopenta[c]pyrrol-5-amine]
5 | 0.0647 | 6 | 1.27 | Fc1ccc(Cl)c(-c2ccc(N[C@H]3C[C@@H]4CN(C5CCOCC5)C[C@@H]4C3)nn2)c1 [compound 2, (3aR,5s,6aS)-N-(6-(2-chloro-5-fluorophenyl)pyridazin-3-yl)-2-(tetrahydro-2H-pyran-4-yl)octahydrocyclopenta[c]pyrrol-5-amine]
9 | 0.417 |  |  | O=C(NC1CC1)c1ccc(N[C@H]2C[C@@H]3CN(CC4CCOCC4)C[C@@H]3C2)nn1 [compound 3, N-cyclopropyl-6-(((3aR,5s,6aS)-2-((tetrahydro-2H-pyran-4-yl)methyl)octahydrocyclopenta[c]pyrrol-5-yl)amino)pyridazine-3-carboxamide]
6 | 0.535 |  |  | O=C(NC1CCCCC1)c1ccc(N[C@H]2C[C@@H]3CN(CC4CCOCC4)C[C@@H]3C2)nn1 [compound 4, N-cyclohexyl-6-(((3aR,5s,6aS)-2-((tetrahydro-2H-pyran-4-yl)methyl)octahydrocyclopenta[c]pyrrol-5-yl)amino)pyridazine-3-carboxamide]
14 | 0.00545 | 14 | > 10 | O=C(c1ccc(N[C@H]2C[C@@H]3CN(CC4CCOCC4)C[C@@H]3C2)nn1)N1CCCCC1 [compound 5, piperidin-1-yl(6-(((3aR,5s,6aS)-2-((tetrahydro-2H-pyran-4-yl)methyl)octahydrocyclopenta[c]pyrrol-5-yl)amino)pyridazin-3-yl)methanone]
21 | 0.0117 | 13 | 7.43 | O=C(c1ccc(N[C@H]2C[C@@H]3CN(CC4CCOCC4)C[C@@H]3C2)nn1)N1CCOCC1 [compound 6, morpholino(6-(((3aR,5s,6aS)-2-((tetrahydro-2H-pyran-4-yl)methyl)octahydrocyclopenta[c]pyrrol-5-yl)amino)pyridazin-3-yl)methanone]
4 | 0.572 | 22 | > 10 | O=C(Nc1ccccc1)c1ccc(N[C@H]2C[C@@H]3CN(CC4CCOCC4)C[C@@H]3C2)nn1 [compound 7, N-phenyl-6-(((3aR,5s,6aS)-2-((tetrahydro-2H-pyran-4-yl)methyl)octahydrocyclopenta[c]pyrrol-5-yl)amino)pyridazine-3-carboxamide]
4 | 0.355 | 25 | > 10 | O=C(Nc1ccccc1F)c1ccc(N[C@H]2C[C@@H]3CN(CC4CCOCC4)C[C@@H]3C2)nn1 [compound 8, N-(2-fluorophenyl)-6-(((3aR,5s,6aS)-2-((tetrahydro-2H-pyran-4-yl)methyl)octahydrocyclopenta[c]pyrrol-5-yl)amino)pyridazine-3-carboxamide]
3 | 0.713 |  |  | O=C(Nc1cccc(F)c1)c1ccc(N[C@H]2C[C@@H]3CN(CC4CCOCC4)C[C@@H]3C2)nn1 [compound 9, N-(3-fluorophenyl)-6-(((3aR,5s,6aS)-2-((tetrahydro-2H-pyran-4-yl)methyl)octahydrocyclopenta[c]pyrrol-5-yl)amino)pyridazine-3-carboxamide]
4 | 0.543 | 9 | 4.19 | O=C(Nc1ccc(F)cc1)c1ccc(N[C@H]2C[C@@H]3CN(CC4CCOCC4)C[C@@H]3C2)nn1 [compound 10, N-(4-fluorophenyl)-6-(((3aR,5s,6aS)-2-((tetrahydro-2H-pyran-4-yl)methyl)octahydrocyclopenta[c]pyrrol-5-yl)amino)pyridazine-3-carboxamide]
4 | 2.06 | 29 | > 10 | O=C(Nc1cc(F)ccc1Cl)c1ccc(N[C@H]2C[C@@H]3CN(CC4CCOCC4)C[C@@H]3C2)nn1 [compound 11, N-(2-chloro-5-fluorophenyl)-6-(((3aR,5s,6aS)-2-((tetrahydro-2H-pyran-4-yl)methyl)octahydrocyclopenta[c]pyrrol-5-yl)amino)pyridazine-3-carboxamide]
4 | 0.00285 | 5 | 0.445 | Fc1ccc(Cl)c(-c2ccc(N[C@H]3C[C@@H]4CN(C5CCCCC5)C[C@@H]4C3)nn2)c1 [compound 12, (3aR,5s,6aS)-N-(6-(2-chloro-5-fluorophenyl)pyridazin-3-yl)-2-cyclohexyloctahydrocyclopenta[c]pyrrol-5-amine]
57 | ≥ 10 |  |  | N#Cc1ccccc1N1C[C@H]2C[C@H](Nc3ccc(-c4cc(F)ccc4Cl)nn3)C[C@H]2C1 [compound 17, 2-((3aR,5s,6aS)-5-((6-(2-chloro-5-fluorophenyl)pyridazin-3-yl)amino)hexahydrocyclopenta[c]pyrrol-2(1H)-yl)benzonitrile]
 |  | 70 | > 10 | CC1(C)CC(N2C[C@H]3C[C@H](Nc4ncc(-c5ccccc5)s4)C[C@H]3C2)CCO1 (stereo partly drawn) [compound 19, N-((3aR,5s,6aS)-2-(2,2-dimethyltetrahydro-2H-pyran-4-yl)octahydrocyclopenta[c]pyrrol-5-yl)-5-phenylthiazol-2-amine]
52 | > 10 |  |  | CC1(C)CC(N2C[C@H]3C[C@H](Nc4ccc5nncn5n4)C[C@H]3C2)CCO1 (stereo partly drawn) [compound 61, N-((3aR,5s,6aS)-2-(2,2-dimethyltetrahydro-2H-pyran-4-yl)octahydrocyclopenta[c]pyrrol-5-yl)-[1,2,4]triazolo[4,3-b]pyridazin-6-amine]

From US20230183218A1, “CONDENSED SUBSTITUTED HYDROPYRROLES AS ANTAGONISTS OF THE MUSCARINIC ACETYLCHOLINE RECEPTOR M4” (Vanderbilt University, priority 2020, published 2023)
